For one test, the target named is Y641N EZH2 (Homo sapiens, UniProt Q15910, Y641N). The test is described as follows: Y641N EZH2 assay: performed as the EZH2 assay, using reconstituted H3K27Me2 oligonucleosomes as substrate. The test is classed as biochemical. The procedure: Assays were carried out by mixing rPRC2 together with biotinylated oligonucleosome substrates in the presence of the radio-labeled enzyme co-factor, S-adenosyl-L-methionine (^3H SAM) (Perkin Elmer) and monitoring the enzymatically mediated transfer of tritiated methyl groups from ^3H SAM to histone lysine residues. The amount of resulting tritated methylhistone product was measured by first capturing the biotinylated oligonuclesomes in streptavidin (SAV) coated FlashPlates (Perkin Elmer), followed by a wash step to remove un-reacted ^3H SAM, and then counting on a TopCount NXT 384 well plate scintillation counter (Perkin Elmer). The final assay conditions for EZH2 were as follows: 50 mM Tris Buffer pH 8.5, 1 mM DTT, 69 uM Brij-35 detergent, 5.0 mM MgCl2, 0.1 mg/mL BSA, 0.2 uM ^3H SAM, 0.2 uM biotinylated oligonucleosomes, 3.6 uM H3K27me3 peptide and 2 nM EZH2.
Compound IC50 measurements were obtained as follows: Compounds were first dissolved in 100% DMSO as 10 mM stock solutions. […] A 12.5 uL volume of the HMT enzyme, H3K27me3 peptide and oligonucleosome substrate in assay buffer was added to each well of the assay plate using a Multidrop Combi (ThermoFisher). Compounds were pre-incubated with the enzyme for 20 min, followed by initiation of the methyltransferase reaction by addition of 12.5 uL of 3H SAM in assay buffer (final volume=25 uL). The final concentrations of compounds ranged from a top default concentration of 80 uM down to 0.16 uM in ten 2-fold dilution steps. Reactions were carried out for 60 minutes and quenched with 20 uL per well of 1.96 mM SAH, 50 mM Tris PH 8.5, 200 mM EDTA. Stopped reactions were transferred to SAV coated Flashplates (Perkin Elmer), incubated for 120 min, washed with a plate washer, and then read on the TopCount NXT (1.0 min/well) to measure the amount of methylhistone product formed during the reaction. The amount of methylhistone product was compared with the amount of product formed in the 0% and 100% inhibition control wells allowing the calculation of % Inhibition in the presence of the individual compounds at various concentrations. IC50's were computed using a 4 parameter fit non-linear curve fitting software package (XLFIT, part of the database package, ActivityBase (IDBS)) where the four parameters were IC50, Hill slope, pre-transitional baseline (0% INH), and post-transitional baseline (100% INH); with the latter two parameters being fixed to zero and 100%, respectively, by default.

In another test the target is EZH2 (Homo sapiens, UniProt Q15910). The test is described as follows: EZH2 assay: rPRC2 with biotinylated oligonucleosome substrates and 3H SAM, FlashPlate scintillation counting, IC50. Type of test: biochemical. Particulars: rPRC2, biotinylated oligonucleosome substrates, 3H SAM; read-out: EZH2 IC50. In a few lines: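 rPRC2 (2 nM EZH2) pre-incubated 20 min with compound (80 to 0.16 uM, ten 2-fold steps), then 60 min reaction with 0.2 uM 3H SAM, 0.2 uM biotinylated oligonucleosomes, 3.6 uM H3K27me3 peptide in Tris pH 8.5. SAH/EDTA quench; 4-parameter IC50 fit.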
EZH2, sequence (Q15910 whole entry): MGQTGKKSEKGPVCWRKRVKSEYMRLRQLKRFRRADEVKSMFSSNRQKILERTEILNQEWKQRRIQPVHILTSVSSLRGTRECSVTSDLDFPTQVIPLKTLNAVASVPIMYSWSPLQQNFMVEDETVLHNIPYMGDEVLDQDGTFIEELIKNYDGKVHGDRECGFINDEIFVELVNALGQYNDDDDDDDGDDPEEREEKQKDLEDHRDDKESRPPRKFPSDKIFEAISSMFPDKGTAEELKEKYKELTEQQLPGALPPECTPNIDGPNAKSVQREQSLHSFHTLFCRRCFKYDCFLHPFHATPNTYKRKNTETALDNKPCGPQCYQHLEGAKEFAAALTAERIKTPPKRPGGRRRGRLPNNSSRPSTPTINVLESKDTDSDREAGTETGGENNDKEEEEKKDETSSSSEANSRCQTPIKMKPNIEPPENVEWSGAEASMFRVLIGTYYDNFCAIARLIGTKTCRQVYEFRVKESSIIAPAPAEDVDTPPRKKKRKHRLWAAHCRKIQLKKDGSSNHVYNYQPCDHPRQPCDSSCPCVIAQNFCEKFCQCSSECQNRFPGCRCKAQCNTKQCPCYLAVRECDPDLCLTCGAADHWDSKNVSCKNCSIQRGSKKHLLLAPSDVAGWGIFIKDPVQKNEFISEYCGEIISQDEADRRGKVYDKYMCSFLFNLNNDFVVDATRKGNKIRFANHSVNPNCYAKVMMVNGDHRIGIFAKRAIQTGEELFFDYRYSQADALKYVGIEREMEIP
EZH2, sequence (O75530 whole entry partner): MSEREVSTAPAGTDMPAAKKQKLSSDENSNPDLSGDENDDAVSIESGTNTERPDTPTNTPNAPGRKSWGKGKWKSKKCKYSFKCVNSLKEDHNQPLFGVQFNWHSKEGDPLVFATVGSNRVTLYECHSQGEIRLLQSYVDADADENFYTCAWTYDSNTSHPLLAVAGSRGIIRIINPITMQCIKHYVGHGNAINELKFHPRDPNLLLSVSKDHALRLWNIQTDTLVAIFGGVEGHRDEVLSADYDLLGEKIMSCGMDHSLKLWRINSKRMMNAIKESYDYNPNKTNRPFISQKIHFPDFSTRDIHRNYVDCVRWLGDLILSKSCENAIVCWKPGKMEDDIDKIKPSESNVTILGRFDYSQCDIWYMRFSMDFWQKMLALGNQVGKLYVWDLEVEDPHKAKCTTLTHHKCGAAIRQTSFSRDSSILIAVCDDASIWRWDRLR
EZH2, sequence (Q15022 whole entry partner): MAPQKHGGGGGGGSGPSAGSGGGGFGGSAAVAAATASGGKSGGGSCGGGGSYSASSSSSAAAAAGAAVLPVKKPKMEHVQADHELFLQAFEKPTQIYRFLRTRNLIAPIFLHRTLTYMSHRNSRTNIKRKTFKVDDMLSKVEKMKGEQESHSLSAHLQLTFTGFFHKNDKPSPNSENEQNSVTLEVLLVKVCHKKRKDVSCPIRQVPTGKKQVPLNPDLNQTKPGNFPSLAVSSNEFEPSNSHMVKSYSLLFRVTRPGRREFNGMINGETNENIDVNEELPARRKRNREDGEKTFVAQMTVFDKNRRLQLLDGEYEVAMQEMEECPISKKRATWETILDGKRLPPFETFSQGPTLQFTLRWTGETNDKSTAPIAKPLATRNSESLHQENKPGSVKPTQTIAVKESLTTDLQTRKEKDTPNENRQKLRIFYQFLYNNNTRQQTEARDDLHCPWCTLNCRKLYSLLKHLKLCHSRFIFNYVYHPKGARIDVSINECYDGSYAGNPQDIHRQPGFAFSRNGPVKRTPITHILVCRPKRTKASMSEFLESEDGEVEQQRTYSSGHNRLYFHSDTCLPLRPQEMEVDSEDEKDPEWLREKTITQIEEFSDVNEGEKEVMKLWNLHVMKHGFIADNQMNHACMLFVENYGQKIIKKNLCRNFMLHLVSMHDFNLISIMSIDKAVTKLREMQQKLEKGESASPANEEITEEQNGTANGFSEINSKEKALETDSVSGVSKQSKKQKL

Y641N EZH2, sequence (Q15910 whole entry Y641N): as the sequence (Q15910 whole entry) above, with Y641N counted along it
Y641N EZH2, sequence (O75530 whole entry partner): as the sequence (O75530 whole entry partner) above
Y641N EZH2, sequence (Q15022 whole entry partner): as the sequence (Q15022 whole entry partner) above

In the case of `CN(C)c1ccc(-c2cccc(OCc3ccc(C(=O)NC4CC(C)(C)NC(C)(C)C4)cc3)c2)cn1` [Compound I-154], the concentration for half-maximal inhibition (IC50) on Y641N EZH2 and at EZH2 was 20 to 80 µM each time.

For the compound `CC1(C)CC(N2CCc3cc(Oc4ccccc4C#N)c(Cl)cc3C2=O)CC(C)(C)N1` [Compound I-163], the IC50 against Y641N EZH2 was greater than 80 µM; on EZH2, 20 to 80 µM. Take `CC(=O)Nc1ccc(-c2cccc(OCc3ccc(C(=O)NC4CC(C)(C)NC(C)(C)C4)cc3)c2)cc1` [Compound I-167]: the IC50 at Y641N EZH2 and on EZH2 was 20 to 80 µM in each case. Regarding `CC1(C)CC(NC(=O)c2ccc(Oc3cccc4cnccc34)cc2)CC(C)(C)N1` [Compound I-171], the IC50 at Y641N EZH2 is 20 to 80 µM; at EZH2 it was less than 5 µM.

On to `CC1(C)CC(NC(=O)c2ccc(C#Cc3ccccc3)cc2)CC(C)(C)N1` [Compound I-173], for which the IC50 at Y641N EZH2 and at EZH2 was 5 to 20 µM each time.

As to `CC1(C)CC(NC(=O)c2ccc(COc3cccc(-c4ccc5[nH]ccc5c4)c3)cc2)CC(C)(C)N1` [Compound I-183], the 50% inhibitory concentration (IC50) against Y641N EZH2 and at EZH2 was 20 to 80 µM throughout. Consider `CC1(C)CC(NC(=O)c2ccc(COc3ccccc3Br)cc2)CC(C)(C)N1` [Compound I-185], for which the half-maximal inhibitory concentration (IC50) was greater than 80 µM at Y641N EZH2 and 20 to 80 µM at EZH2. Taken in the same sequence, the figures for `CC1(C)CC(NC(=O)c2ccc(Oc3ccccc3C#N)c(Br)c2)CC(C)(C)N1` [Compound I-186] were 5 to 20 µM and less than 5 µM.

As to `CC1(C)CC(NC(=O)c2ccc(Oc3ccccc3C#N)c(CCc3ccccc3)c2)CC(C)(C)N1` [Compound I-199], the IC50 on Y641N EZH2 is 5 to 20 µM; at EZH2 it was less than 5 µM. Taken in the same sequence, the figures for `CC1(C)CC(NC(=O)c2ccc(Oc3ccccc3-c3cccnc3)c(Cl)c2)CC(C)(C)N1` [Compound I-207] were 20 to 80 µM and less than 5 µM.

In the case of `CC1(C)CC(NC(=O)c2ccc(COc3cccc(Br)c3)c(Br)c2)CC(C)(C)N1` [Compound I-216], the IC50 at Y641N EZH2 fell in the range of 20 to 80 µM; at EZH2 it was 5 to 20 µM. In the case of `CC1(C)CC(NC(=O)c2ccc(Oc3ccccc3C#N)c(F)c2)CC(C)(C)N1` [Compound I-217], the values for the IC50 against Y641N EZH2 and on EZH2 were 20 to 80 µM and less than 5 µM, respectively.

For `Cc1cc(C(=O)NC2CC(C)(C)NC(C)(C)C2)ccc1Oc1ccccc1C#N` [Compound I-223], the IC50 against Y641N EZH2 was 5 to 20 µM; on EZH2 it was less than 5 µM. Taken in the same sequence, the figures for `CC1(C)CC(NC(=O)c2ccc(Oc3cccc(-c4ccc(N)nc4)c3)cc2)CC(C)(C)N1` [Compound I-228] were greater than 80 µM and 5 to 20 µM. Turning to `CC1(C)CC(NC(=O)c2ccc(Oc3cccc(Br)c3C#N)c(Cl)c2)CC(C)(C)N1` [Compound I-254], the IC50 against Y641N EZH2 and at EZH2 was less than 5 µM each time.

`CC1(C)CC(NC(=O)c2ccc(Oc3cccc(Cl)c3C#N)c(Cl)c2)CC(C)(C)N1` [Compound I-256]: the concentration for half-maximal inhibition (IC50) against Y641N EZH2 and on EZH2 was less than 5 µM throughout.

Turning to `CC1(C)CC(NC(=O)c2ccc(Oc3cccc(I)c3C#N)c(Cl)c2)CC(C)(C)N1` [Compound I-257], the 50% inhibitory concentration (IC50) against Y641N EZH2 and on EZH2 was less than 5 µM in each case. For `CC1(C)CC(NC(=O)c2ccc(Oc3cccc(F)c3C#N)c(Cl)c2)CC(C)(C)N1` [Compound I-258], the IC50 on Y641N EZH2 and on EZH2 was less than 5 µM in each case.

Consider `Cc1cc(C(=O)NC2CC(C)(C)NC(C)(C)C2)ccc1Oc1cccc(Br)c1C#N` [Compound I-259], for which the half-inhibitory concentration (IC50) at Y641N EZH2 and at EZH2 was less than 5 µM in each case. With `Cc1cc(C(=O)NC2CC(C)(C)NC(C)(C)C2)ccc1Oc1cccc(-c2ccccc2)c1C#N` [Compound I-260], the IC50 against Y641N EZH2 was 20 to 80 µM; on EZH2, less than 5 µM. On to `Cc1cc(C(=O)NC2CC(C)(C)NC(C)(C)C2)ccc1Oc1cccc(-c2cn[nH]c2)c1C#N` [Compound I-262], for which the concentration for half-maximal inhibition (IC50) against Y641N EZH2 and on EZH2 was less than 5 µM in each case.

With `CCc1cccc(Oc2ccc(C(=O)NC3CC(C)(C)NC(C)(C)C3)cc2C)c1C#N` [Compound I-266], the IC50 against Y641N EZH2 and at EZH2 was less than 5 µM throughout.

For `CC1(C)CC(NC(=O)c2ccc(Oc3cccc(NCC(N)=O)c3)c(Cl)c2)CC(C)(C)N1` [Compound I-304], the figures for the IC50 on Y641N EZH2 and on EZH2 were greater than 80 µM and 5 to 20 µM, respectively.

Consider `CC1(C)CC(NC(=O)c2ccc(Oc3cccc(-c4cn[nH]c4)c3C#N)c(Cl)c2)CC(C)(C)N1` [Compound I-307], for which the IC50 against Y641N EZH2 and on EZH2 was less than 5 µM each time. As to `CC1(C)CC(NC(=O)c2ccc(Oc3cccc(-c4cccnc4)c3C#N)c(Cl)c2)CC(C)(C)N1` [Compound I-308], the IC50 at Y641N EZH2 and on EZH2 was less than 5 µM each time.

With `CC1(C)CC(NC(=O)c2ccc(Oc3cccc(-c4ccc(N)nc4)c3C#N)c(Cl)c2)CC(C)(C)N1` [Compound I-312], the 50% inhibitory concentration (IC50) at Y641N EZH2 and at EZH2 was less than 5 µM throughout. With `CC1(C)CC(NC(=O)c2ccc(Oc3ccccc3-c3cnc4ccccc4c3)c(Cl)c2)CC(C)(C)N1` [Compound I-320], the figures for the half-maximal inhibitory concentration (IC50) at Y641N EZH2 and at EZH2 were 5 to 20 µM and less than 5 µM, respectively. For `CC1(C)CC(NC(=O)c2ccc(Oc3cccc4cnccc34)c(Cl)c2)CC(C)(C)N1` [Compound I-324], the figures for the half-maximal inhibitory concentration (IC50) at Y641N EZH2 and at EZH2 were 5 to 20 µM and less than 5 µM, respectively.

Consider `CC(Oc1cccc(Oc2ccc(C(=O)NC3CC(C)(C)NC(C)(C)C3)cc2Cl)c1C#N)C(N)=O` (stereo not drawn) [Compound I-326], for which the IC50 against Y641N EZH2 was greater than 80 µM; on EZH2 it was 5 to 20 µM. Taken in the same sequence, the figures for `CC1(C)CC(NC(=O)c2ccc(-n3ncc4ccccc43)c(Cl)c2)CC(C)(C)N1` [Compound I-327] were 5 to 20 µM and less than 5 µM. As for `CC1(C)CC(NC(=O)c2ccc(/C=C/c3ccccc3)cc2)CC(C)(C)N1` [Compound I-330], the half-maximal inhibitory concentration (IC50) was greater than 80 µM against Y641N EZH2 and 20 to 80 µM at EZH2. Taken in the same sequence, the figures for `COc1cccc(Oc2ccc(C(=O)NC3CC(C)(C)NC(C)(C)C3)cc2Cl)c1C#N` [Compound I-333] were 5 to 20 µM and less than 5 µM. As for `CN(C)c1cccc(Oc2ccc(C(=O)NC3CC(C)(C)NC(C)(C)C3)cc2Cl)c1C#N` [Compound I-334], the 50% inhibitory concentration (IC50) against Y641N EZH2 was 5 to 20 µM; on EZH2, less than 5 µM. Taken in the same sequence, the figures for `CC1(C)CC(NC(=O)c2ccc(Oc3cccc(-c4ccncc4)c3C#N)c(Cl)c2)CC(C)(C)N1` [Compound I-339] were less than 5 µM and less than 5 µM. Taken in the same sequence, the figures for `CC1(C)CC(NC(=O)c2ccc(Oc3cccc(-c4cncnc4)c3C#N)c(Cl)c2)CC(C)(C)N1` [Compound I-340] were 5 to 20 µM and less than 5 µM.

On to `CCc1cccc(Oc2ccc(C(=O)NC3CC(C)(C)NC(C)(C)C3)cc2Cl)c1-c1ccncc1` [Compound I-342], for which the half-inhibitory concentration (IC50) is greater than 80 µM at Y641N EZH2 and 20 to 80 µM at EZH2. With `CCc1cccc(Oc2ccc(C(=O)NC3CC(C)(C)NC(C)(C)C3)cc2Cl)c1-c1cccnc1` [Compound I-343], the IC50 at Y641N EZH2 and at EZH2 was 20 to 80 µM throughout. As to `CN(C(=O)c1ccc(Oc2ccccc2C#N)c(Cl)c1)C1CC(C)(C)NC(C)(C)C1` [Compound I-344], the half-maximal inhibitory concentration (IC50) against Y641N EZH2 is greater than 80 µM; at EZH2, 5 to 20 µM. With `CC1(C)CC(NC(=O)c2ccc(Oc3cccc(-c4cn[nH]c4)c3C#N)c(Br)c2)CC(C)(C)N1` [Compound I-347], the IC50 against Y641N EZH2 and on EZH2 was less than 5 µM each time.

Take `CC1(C)CC(N2Cc3cc(Oc4ccccc4C#N)c(Cl)cc3C2=O)CC(C)(C)N1` [Compound I-356]: the IC50 on Y641N EZH2 and at EZH2 was greater than 80 µM throughout. Regarding `CC(Cc1cccc(Oc2ccc(C(=O)NC3CC(C)(C)NC(C)(C)C3)cc2Cl)c1C#N)C(N)=O` (stereo not drawn) [Compound I-559], the 50% inhibitory concentration (IC50) at EZH2 was less than 5 µM. Same read-out and setting: to `CC1(C)CC(NC(=O)c2ccc(Oc3cccc(C4CCCN4)c3C#N)c(Cl)c2)CC(C)(C)N1` (stereo not drawn) [Compound I-562] belongs less than 5 µM. For the compound `CNC(=O)CC1(NC(=O)c2ccc(Oc3cccc(-c4ccnnc4)c3C#N)c(Cl)c2)CC(C)(C)NC(C)(C)C1` [Compound I-570], on EZH2, the IC50 is greater than 80 µM. As to `CC(=O)Nc1ccc(-c2cccc(OCc3ccc(C(=O)NC4CC(C)(C)NC(C)(C)C4)cc3)c2)cn1` [Compound I-593], on EZH2, the IC50 was less than 5 µM.

For the origin of these results see patent publication US20130310379A1, “MODULATORS OF METHYL MODIFYING ENZYMES, COMPOSITIONS AND USES THEREOF” (CONSTELLATION PHARMACEUTICALS, priority 2010, published 2013).
